Measurements published in patent US9365540B2, “Benzimidazole derivatives as MCH receptor antagonists” (Takeda Pharmaceutical Company Limited, priority 2012, dated 2016).

Tests used:
[1] = target: T1, human MCH receptor 1 (MCHR1) (Homo sapiens, UniProt Q99705); test: human MCH receptor 1 (MCHR1) competitive binding assay with [125I]-MCH(4-19); details: test compound 0.1 μM, human MCHR1-expressing CHO cell membrane fraction, read-out: Binding inhibition rate % (0.1 μM)
T1 construct: expressed in transfected cells; host or cells: CHO cell clone 57 (membrane fraction)
Procedure, shortened: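 Membranes from CHO cells expressing human MCHR1 incubated with [125I]-MCH(4-19) and test compound in 20 mM Tris-HCl pH 7.5/5 mM EDTA with protease inhibitors, 1 hr at room temperature. Bound radioactivity collected on PEI-treated GF/C filters; % inhibition at 0.1 μM compound, nonspecific binding set with cold MCH(1-19).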

[2] = test system: male diet-induced obese F344/Jcl rats; test: Anorectic effect in male diet-induced obese F344/Jcl rats; format: in vivo, rat; details: Rattus norvegicus, po, 48 h, 5 mg/mL suspension at 2 mL/kg, two administrations, food intake for 2 days vs control group, read-out: Food intake suppression rate (%)
Procedure: Evaluation of Anorectic Effect Using Male Diet-Induced Obese F344/Jcl Rats
Male diet-induced obese F344/Jcl rats (44-50 weeks old) fed with a high-fat diet (D12451: Research Diets) from 5 weeks old were used. From before the start of experiment, the rats were singly housed, given a powder high-fat diet (D12451M: Research Diets), and habituated to oral administration with tap water. The food intake from the evening of the day before the start of experiment to the next morning was measured, and the rats were grouped based on both the food intake and the body weight of the previous day. In the evening of the day of the start of experiment and the next day, 0.5% methylcellulose solution was orally administered to the control group, and 0.5% methylcellulose suspension (5 mg/mL) of the test compound was orally administered to the compound administration group at 2 mL/kg (6 per group for both control group and compound administration group). The food intake for 2 days from the initial administration was measured. The food intake inhibition rate of each compound administration group to the control group was calculated.

HepG2 cells = test: PLsis (phospholipidosis) inducing potential, NBD-PE uptake; format: cell-based; details: 24 hr exposure, relative value to 10 μM Amiodarone, maximum value per unit concentration
Procedure: Evaluation of PLsis Inducing Potential
DMEM medium, L-glutamine, penicillin-streptomycin, pyruvic acid, and N-(7-nitrobenz-2-oxa-1,3-diazol-4-yl)-1,2-hexadecanoyl-sn-glycero-3-phosphoethanolamine triethylammonium salt (NBD-PE) were purchased from Invitrogen Corporation. As bovine serum albumin (BSA), a product of Thermo Trace Ltd. (Melbourne, Australia) was used, and as Amiodarone, a product of ICN (Costa Mesa, Calif.) was used. A test compound was used in the form of a 10 mM DMSO solution.
FBS was added at a final concentration of 5 vol % to DMEM medium supplemented with L-glutamine, pyruvic acid and penicillin-streptomycin and subjected to the experiment. Culture was performed using 5% carbon dioxide gas-95% air as a gas phase in a CO2 incubator at 37° C. HepG2 cells were suspended in a culture medium at 50×10^4 cells/mL, plated in a 96 well plate at 50 μL/well and precultured for 24 hr. After preculture, the culture medium was removed, a culture medium containing 60 μM NBD-PE was added at 50 μL/well, and a culture medium containing 0.6 μM or 20 μM test compounds were each added at 50 μL/well to HepG2 cells, and the cells were cultured for 24 hr. As a positive control, Amiodarone was used at a final concentration of 10 μM.
After exposure to the test compound for 24 hr, the fluorescence intensity (Ex. 485 nm, Em. 538 nm) of NBD-PE uptaken by the cells was measured by a fluorometer. The measurement value with addition of 0 μM test compound solution was subtracted as a blank, a relative value to the measurement 5 value with addition of 10 μM Amiodarone was calculated, and the maximum value per unit concentration of the test compound was obtained as a phospholipidosis (PLsis) inducing potential.

human MCHR1 = target: T2, human MCHR1 (Homo sapiens, UniProt Q99705); test: MCH receptor 1 antagonistic activity, Ca2+ mobilization assay; format: cell-based; details: CHO, test compound 0.1 μM; human MCHR1-expressing CHO cells (clone #4); ligand MCH(4-19) 2 nM; read-out: Inhibitory rate % (0.1 μM)
T2 construct: expressed in transfected cells; host or cells: CHO dhfr- cells, clone #4
Procedure, shortened: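 CHO dhfr− cells stably expressing human MCHR1 (clone #4) were used in a fluorometric Ca2+ mobilization assay. Test compounds were run at 0.1 μM, with antagonism expressed as percent inhibition.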

T2 sequence (Q99705 whole entry): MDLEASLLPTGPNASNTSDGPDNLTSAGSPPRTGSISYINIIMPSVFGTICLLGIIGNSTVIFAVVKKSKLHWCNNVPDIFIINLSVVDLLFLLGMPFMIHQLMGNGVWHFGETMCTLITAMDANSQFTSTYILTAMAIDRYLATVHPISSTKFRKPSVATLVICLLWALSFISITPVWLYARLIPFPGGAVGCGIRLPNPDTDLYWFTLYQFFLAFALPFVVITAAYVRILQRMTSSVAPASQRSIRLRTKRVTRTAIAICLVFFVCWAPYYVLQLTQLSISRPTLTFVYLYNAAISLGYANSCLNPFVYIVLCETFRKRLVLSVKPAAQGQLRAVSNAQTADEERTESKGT
T1 sequence (Q99705 whole entry): as above

inhibition at 0.1 µM [1]	inhibition at 0.1 µM (human MCHR1)	Structure (SMILES)	inhibition in vivo at 5000 µg/mL, 10 mg/kg [2]	PLsis inducing potential (HepG2 cells)
81%	101%	Cc1c(C2CC2)nc2ccc(-n3ccc(OCc4ccccc4)cc3=O)cn12 [Example 11, 4-(Benzyloxy)-1-(2-cyclopropyl-3-methylimidazo[1,2-a]pyridin-6-yl)pyridin-2(1H)-one]	21.8%	2.0
70%	48%	Cn1c(C2CC2)nc2ccc(-n3ccc(OCc4ccc(Cl)cn4)cc3=O)cc21 [Example 112, 4-((5-Chloropyridin-2-yl)methoxy)-1-(2-cyclopropyl-1-methyl-1H-benzimidazol-6-yl)pyridin-2(1H)-one]	25.5%	1.6
95%	96%	Cn1c(C2CC2)nc2ccc(-n3ccc(OCc4ccc(Cl)s4)cc3=O)cc21 [Example 121, 4-((5-Chloro-2-thienyl)methoxy)-1-(2-cyclopropyl-1-methyl-1H-benzimidazol-6-yl)pyridin-2(1H)-one]	36.5%	1.7
